According to the NIST ThermoML archive (doi:10.1016/j.fluid.2018.04.025):

Test: xn = mol fraction of the nth substance listed
Settings: 101 kPa, Liquid; for viscosity: Falling or rolling sphere viscometry; for speed of sound: Frequency=3 MHz, Sing-around technique in a fixed-path interferometer; for mass density: Vibrating tube method

CCCC[n+]1ccn(C)c1.O=S(=O)([N-]S(=O)(=O)C(F)(F)F)C(F)(F)F + CCCO
Settings | mass density, 313.15 K [kg/m3] | mass density, 318.15 K [kg/m3] | mass density, 323.15 K [kg/m3] | speed of sound, 313.15 K [m/s] | speed of sound, 318.15 K [m/s] | speed of sound, 323.15 K [m/s] | viscosity, 313.15 K [mPa·s] | viscosity, 318.15 K [mPa·s] | viscosity, 323.15 K [mPa·s]
x1 = 0.1034 | 984.572 | 979.997 | 975.381 | 1138.7 | 1124.5 | 1110.5 | 2.53 | 2.27 | 2.03
x1 = 0.203 | 1103.58 | 1098.85 | 1094.03 | 1141.7 | 1128.7 | 1115.8 | 3.95 | 3.69 | 2.98
x1 = 0.3043 | 1186.72 | 1181.93 | 1177.02 | 1150.7 | 1138.3 | 1126 | 5.25 | 4.84 | 3.93
x1 = 0.409 | 1249.43 | 1244.67 | 1239.67 | 1160.6 | 1148.8 | 1137 | 6.9 | 6.15 | 5.25
x1 = 0.5068 | 1294.03 | 1289.19 | 1284.24 | 1167.8 | 1156.3 | 1144.8 | 8.85 | 7.74 | 6.82
x1 = 0.603 | 1329.15 | 1324.35 | 1319.4 | 1175 | 1163.7 | 1152.6 | 11.93 | 10.34 | 9.13
x1 = 0.6981 | 1357.57 | 1352.76 | 1347.82 | 1180.7 | 1169.5 | 1158.6 | 14.94 | 13.01 | 11.42
x1 = 0.809 | 1384.85 | 1380.05 | 1375.13 | 1186.4 | 1175.5 | 1164.6 | 18.72 | 16.35 | 14.23
x1 = 0.8925 | 1402.29 | 1397.5 | 1392.58 | 1190.7 | 1180 | 1169.3 | 22.94 | 19.74 | 17.01
x1 = 1 | 1421.64 | 1416.84 | 1411.89 | 1194.7 | 1184 | 1173.5 | 28.93 | 24.63 | 21.11
